The record followed here is patent publication US20250171432A1, “COMPOUNDS AND METHODS OF USE” (Tango Therapeutics, Inc., priority 2022, published 2025).

Assay type in all cases: cell-based
For assay [1], the system named is SDMA (PRMT5 activity) in HAP1 MTAP-deleted cell line. The assay is described as follows: SDMA in-cell western assay, HAP1 MTAP-deleted. The note with it: for IC50 / IC90: Homo sapiens, SDMA in-cell western, HAP1 MTAP-deleted cells, 24 hours compound incubation; for Hap1 MTAP intact/deleted ratio: ratio of SDMA IC50 in HAP1 MTAP-intact to HAP1 MTAP-deleted cell line. On the procedure:
(§1) The SAM-cooperative PRMT5 inhibitor, GSK3326595, was sourced from SelleckChem and maintained as a 10 mM DMSO stock. All test compounds are maintained as 10 mM DMSO stocks
(§2) On Day 0, MTAP-intact or MTAP-deleted cells are seeded in a 384-well plate, and incubated in a humidified, 5% CO2 tissue culture incubator for 16-24 hours. On Day 1, the test compounds are dispensed to wells at defined concentrations using a Tecan D300e digital dispenser (n=4), and the volume of DMSO is normalized to highest class volume. Each plate includes wells dosed with defined concentrations of GSK33226595 as a plate control. The compounds are incubated with cells for 24 hours in a humidified, 5% CO2 tissue culture incubator.
(§3) On Day 2, the compound-treated cells are fixed with a final concentration of 4% formaldehyde. The cells are then washed/permeabilized with 1×PBS+0.1% Triton X-100, and then blocked with 5% goat serum/1×TBS.
(§4) The cells are washed with 1×PBS+0.1% Triton X-100, and then washed again with ddH20. The plates are then imaged using a NIR fluorescent imager (LiCor Odyssey).
(§5) For data analysis, the SDMA signal is normalized to the DRAQ5 signal. Assay background is determined by the signal from wells treated with 1 μM GSK3326595, and subtracted from every well. The data are plotted as % of the DMSO control wells for the MTAP-intact and the MTAP-deleted cell lines independently, and fitted to the 4-parameter logistic (4-PL) Hill equation with maximal effect constrained to 0. The fit was performed using GraphPad Prism or the default IC50 fitting procedure in Dotmatics Studies 5.4 as part of a customized data analysis protocol.

Assay [2] concerns SDMA (PRMT5 activity) in HAP1 MTAP-intact cell line. The assay is described as follows: SDMA in-cell western assay, HAP1 MTAP-intact. To be noted: Homo sapiens, SDMA in-cell western, HAP1 MTAP-intact cells, 24 hours compound incubation. The procedure:
as §1, §2, §3, §4, §5

The subject of assay [3] is HAP1 MTAP-deleted cell line. Description: Viability assay (CellTiter-Glo), HAP1 MTAP-deleted. The note with it: Homo sapiens, 168 h, HAP1 MTAP-deleted cells, 7 days. On the procedure: All test compounds are maintained as 10 mM DMSO stocks.
On Day 0, MTAP-intact and MTAP-deleted cells are seeded in a 96-well plate, and incubated in a humidified, 5 or 10% CO2 tissue culture incubator for 16-24 hours. On Day 1, the test compounds are dispensed to wells at defined concentrations using a Tecan D300e digital dispenser (n=3), and the volume of DMSO is normalized to highest class volume (0.2%). The compound-treated plates are incubated for 7 days in a humidified, 5 or 10% CO2 tissue culture incubator.
On Day 7, the plates are removed from the tissue culture incubator and allowed to equilibrate to room temperature. Then either a ½% volume CellTiter-Glo Luminescent Cell Viability Assay reagent (Promega G7572) is added to each well, or the media is removed from every well and a 1:3 dilution of CellTiter-Glo 2.0 Cell Viability Assay reagent (Promega G9241) in 1×PBS is added. Ten minutes after addition, the luminescent signal is detected by an Envision plate reader. The data are plotted as % of the DMSO control wells for the MTAP-intact and the MTAP-deleted cell lines independently, and fitted to the 4-parameter logistic (4-PL) Hill equation with maximal effect constrained to 0. The fit was performed using GraphPad Prism or the default IC50 fitting procedure in Dotmatics Studies 5.4 as part of a customized data analysis protocol.
(In ATP-based viability assays light output follows the ATP content of the culture.)

Take `CCc1cc(NC(=O)C(=O)N2C[C@@H](C)CC[C@@H]2c2ccc3sc(C4CN(C)C(C)(C)C4)nc3c2)cnc1N` (mixture of isomers) [Compound 13, N-(6-amino-5-ethylpyridin-3-yl)-2-((2R,5S)-5-methyl-2-(2-(1,5,5-trimethylpyrrolidin-3-yl)benzo[d]thiazol-5-yl)piperidin-1-yl)-2-oxoacetamide]: in assay [1], the IC50 was less than 5 nM, the IC90 was less than 75 nM and the “Hap1 MTAP intact/deleted ratio” value is listed as “C (“C” indicates an IC50 ratio of less than 15 fold)”. In assay [2] (HAP1, 24 h), this compound showed an IC50 of 5 to 50 nM. Also, the IC50 in assay [3] is less than 100 nM.

Regarding `CCc1cc(NC(=O)C(=O)N2C[C@@H](C)CC[C@@H]2c2ccc3sc(CC4CCN(C)CC4)nc3c2)cnc1N` [Compound 41, N-(6-amino-5-ethylpyridin-3-yl)-2-((2R,5S)-5-methyl-2-(2-((1-methylpiperidin-4-yl)methyl)benzo[d]thiazol-5-yl)piperidin-1-yl)-2-oxoacetamide], in assay [1], the IC50 was less than 5 nM, the IC90 was less than 75 nM and the “Hap1 MTAP intact/deleted ratio” value is given as “B (“B” indicates an IC50 ratio greater than or equal to 15 fold but lower than 30 fold)”. The same compound had an IC50 in assay [2] (HAP1, 24 h) of 5 to 50 nM. In addition, the IC50 in assay [3] is less than 100 nM.

`COc1ncc(NC(=O)C(=O)N2C[C@@H](C)CC[C@@H]2c2ccc3sc([C@H](C)CN(C)C)nc3c2)cc1C(N)=O` [Compound 11, 2-methoxy-5-[[2-oxo-2-[(2R,5S)-5-methyl-2-[2-[(^1S)-2-(dimethylamino)-1-methyl-ethyl]-1,3-benzothiazol-5-yl]-1-piperidyl]acetyl]amino]pyridine-3-carboxamide]: the IC50 in assay [1] is less than 5 nM; in assay [2] (HAP1, 24 h), more than 50 nM; in assay [3] it was less than 100 nM. The compound further came in with an IC90 in assay [1] of less than 75 nM. Moreover, in assay [1], the “Hap1 MTAP intact/deleted ratio” value is “A (“A” indicates an IC50 ratio greater than or equal to 30 fold)”.

Consider `CCc1cc(NC(=O)C(=O)N2C[C@@H](C)CC[C@@H]2c2ccc3cc(C4CCN(C)CC4)cnc3c2)cnc1N` [Compound 95, N-(6-amino-5-ethylpyridin-3-yl)-2-((2R,5S)-5-methyl-2-(3-(1-methylpiperidin-4-yl)quinolin-7-yl)piperidin-1-yl)-2-oxoacetamide], for which the IC50 in assay [1] was less than 5 nM; in assay [2] (HAP1, 24 h), 5 to 50 nM; in assay [3], less than 100 nM. The same compound gave an IC90 in assay [1] of less than 75 nM. In assay [1], the “Hap1 MTAP intact/deleted ratio” value is on record as “B (“B” indicates an IC50 ratio greater than or equal to 15 fold but lower than 30 fold)”.

Take `CCc1cc(NC(=O)C(=O)N2C[C@@H](C)CC[C@@H]2c2ccc3sc([C@@H]4CN(C)CC(C)(C)C4)nc3c2)cnc1N` (single isomer, unassigned) [Compound 105]: in assay [1], the IC50 was less than 5 nM, the IC90 was less than 75 nM and the “Hap1 MTAP intact/deleted ratio” value was “A (“A” indicates an IC50 ratio greater than or equal to 30 fold)”. In assay [2] (HAP1, 24 h), this compound registered an IC50 of more than 50 nM. The same compound registered an IC50 in assay [3] of less than 100 nM.

Turning to `CCc1cc(NC(=O)C(=O)N2C[C@@H](C)CC[C@@H]2c2cccc(N3CCC(N(C)C)CC3)c2)cnc1N` [Compound 9, N-(6-amino-5-ethylpyridin-3-yl)-2-((2R,5S)-2-(3-(4-(dimethylamino)piperidin-1-yl)phenyl)-5-methylpiperidin-1-yl)-2-oxoacetamide], the IC50 was less than 5 nM in assay [1]; more than 50 nM in assay [2] (HAP1, 24 h); less than 100 nM in assay [3]. The compound also came in with an IC90 in assay [1] of less than 75 nM. For the same compound, the “Hap1 MTAP intact/deleted ratio” value in assay [1] was “A (“A” indicates an IC50 ratio greater than or equal to 30 fold)”.

Consider `CCc1cc(NC(=O)C(=O)N2C[C@@H](C)CC[C@@H]2c2ccc3sc([C@H]4CN(C)C(C)(C)C4)nc3c2)cnc1N` (single isomer, unassigned) [Compound 27], for which, in assay [1], the IC50 was less than 5 nM, the IC90 is less than 75 nM and the “Hap1 MTAP intact/deleted ratio” value was “B (“B” indicates an IC50 ratio greater than or equal to 15 fold but lower than 30 fold)”. For the same compound, the IC50 in assay [2] (HAP1, 24 h) was 5 to 50 nM. In assay [3], the IC50 is less than 100 nM.

Regarding `COc1ncc(NC(=O)C(=O)N2C[C@@H](C)CC[C@@H]2c2ccc3sc([C@@H](C)CN4CCCC4)nc3c2)cc1C(N)=O` [Compound 62, 2-methoxy-5-[[2-oxo-2-[(2R,5S)-5-methyl-2-[2-[(1S)-1-methyl-2-pyrrolidin-1-yl-ethyl]-1,3-benzothiazol-5-yl]-1-piperidyl]acetyl]amino]pyridine-3-carboxamide], in assay [1], the IC50 is less than 5 nM, the IC90 was less than 75 nM and the “Hap1 MTAP intact/deleted ratio” value is recorded as “A (“A” indicates an IC50 ratio greater than or equal to 30 fold)”. In assay [2] (HAP1, 24 h), the IC50 was more than 50 nM. The same compound had an IC50 in assay [3] of less than 100 nM.

On to `COc1ncc(NC(=O)C(=O)N2C[C@@H](C)CC[C@@H]2c2ccc3sc([C@@H]4CCN(C)CC4(C)C)nc3c2)cc1C(N)=O` (single isomer, unassigned) [Compound 3], for which, in assay [1], the half-inhibitory concentration (IC50) was less than 5 nM, the IC90 is less than 75 nM and the “Hap1 MTAP intact/deleted ratio” value is on record as “B (“B” indicates an IC50 ratio greater than or equal to 15 fold but lower than 30 fold)”. The compound also yielded a half-inhibitory concentration (IC50) in assay [2] (HAP1, 24 h) of more than 50 nM. This compound showed an IC50 in assay [3] of less than 100 nM.

Regarding `COc1ncc(NC(=O)C(=O)N2C[C@@H](C)CC[C@@H]2c2ccc3sc([C@@H]4CCN(C)C[C@H]4OC)nc3c2)cc1C(N)=O` (single isomer, unassigned) [Compound 68], in assay [1], the IC50 is less than 5 nM, the IC90 was less than 75 nM and the “Hap1 MTAP intact/deleted ratio” value is reported as “A (“A” indicates an IC50 ratio greater than or equal to 30 fold)”. This compound yielded an IC50 in assay [2] (HAP1, 24 h) of more than 50 nM. Further, the 50% inhibitory concentration (IC50) in assay [3] was less than 100 nM.

In the case of `COc1ncc(NC(=O)C(=O)N2C[C@@H](C)CC[C@@H]2c2ccc3sc(C4(C)CCN(C)CC4)nc3c2)cc1C(N)=O` [Compound 122, 5-(2-((2R,5S)-2-(2-(1,4-dimethylpiperidin-4-yl)benzo[d]thiazol-5-yl)-5-methylpiperidin-1-yl)-2-oxoacetamido)-2-methoxynicotinamide], in assay [1], the IC50 is less than 5 nM, the IC90 is less than 75 nM and the “Hap1 MTAP intact/deleted ratio” value is “A (“A” indicates an IC50 ratio greater than or equal to 30 fold)”. Further, in assay [2], the IC50 is more than 50 nM. The IC50 in assay [3] is less than 100 nM.

With `CCc1cc(NC(=O)C(=O)N2C[C@@H](C)CC[C@@H]2c2ccc3cn(C4CCN(C)C(C)(C)C4)nc3c2)cnc1N` (single isomer, unassigned) [Compound 48], in assay [1], the IC50 was less than 5 nM, the concentration for an effect of 90% (IC90) was less than 75 nM and the “Hap1 MTAP intact/deleted ratio” value is “C (“C” indicates an IC50 ratio of less than 15 fold)”. The IC50 in assay [2] (HAP1, 24 h) fell in the range of 5 to 50 nM. In addition, the IC50 in assay [3] is less than 100 nM.

Take `CCc1cc(NC(=O)C(=O)N2C[C@@H](C)CC[C@@H]2c2ccc3sc([C@@H]4CCN(C)CC4(C)C)nc3c2)cnc1N` [Compound 79, N-(6-amino-5-ethylpyridin-3-yl)-2-((5S)-5-methyl-2-(2-(1,3,3-trimethylpiperidin-4-yl)benzo[d]thiazol-5-yl)piperidin-1-yl)-2-oxoacetamide]: the IC50 was less than 5 nM in assay [1]; 5 to 50 nM in assay [2] (HAP1, 24 h); less than 100 nM in assay [3]. For the same compound, the IC90 in assay [1] was less than 75 nM. In addition, the “Hap1 MTAP intact/deleted ratio” value in assay [1] is “C (“C” indicates an IC50 ratio of less than 15 fold)”.

Take `COc1ncc(NC(=O)C(=O)N2C[C@@H](C)CC[C@@H]2c2ccc3ccc(C4CCN(C)CC4)nc3c2)cc1C(N)=O` [Compound 88, 2-methoxy-5-(2-((2R,5S)-5-methyl-2-(2-(1-methylpiperidin-4-yl)quinolin-7-yl)piperidin-1-yl)-2-oxoacetamido)nicotinamide]: in assay [1], the IC50 was less than 5 nM, the IC90 is less than 75 nM and the “Hap1 MTAP intact/deleted ratio” value was “A (“A” indicates an IC50 ratio greater than or equal to 30 fold)”. The IC50 in assay [2] (HAP1, 24 h) was more than 50 nM. In assay [3], this compound showed an IC50 of less than 100 nM.

In general, IC50 refers to the concentration needed to halve the response being measured. Read a low IC50 as higher potency. One may read the IC90 as the point of the concentration-response curve where the effect stands at 90%.
